# Where “and” joins values, the source holds several entries; their conditions need not be identical. Equal entries are not always repeated.
# Assays:
# [1] = system: pollen beetle, Meligethes aeneus; test: Discriminating dose bioassay: α-cypermethrin in mixture with synergist; assay type: in vivo; settings: Brassicogethes aeneus; for mortality at 0.3 ppm: 0.3 ppm α-cypermethrin alone
# Procedure: (§1) Two pyrethroid resistant populations originating from two different areas in Poland ‘Rogalin'and lebork’ were collected in July 2008. A putative susceptible population, UK population, was also collected in July 2008 in Hertfordshire, UK. All populations were collected from oilseed rape contained adults only and were kept at room temperature before assays were performed.
# Bioassays incorporating the compounds (Compound of Example 2 and Compound of Example 3) dissolved in acetone, were carried out using a diagnostic concentration of α-cypermethrin derived from the above full dose response bioassays in a mixture of 0.01 g L^−1 of the compounds. The concentration of α-cypermethrin used for the discriminating dose bioassays was 0.3 ppm α-cypermethrin for the two polish populations, Rogalin and Lebork and 0.03 ppm α-cypermethrin for UK population. Vials treated with the compounds only, dissolved in acetone and acetone only were used as controls. Ten to 15 replicates were used for each treatment depending on insect numbers within the population. Compounds concentrations chosen conferred no mortality in preliminary bioassays.
# (§2) Treated vials including the pollen beetles were stored in constant environment facilities at 18±2° C. and 16L: 8D. All bioassays were scored at an endpoint of 24 h after exposure to the insecticide. Insects incapable of coordinated movement (after gentle touching with a pencil brush if necessary) were scored as dead.
# [2] = system: pollen beetle, Meligethes aeneus; test: Full dose response bioassay (α-cypermethrin), coated glass vials, IRAC method no 11; assay type: in vivo; settings: for LC50 (lethal concentration of α-cypermethrin to kill 50% of the population): 24 h
# Procedure: as §1
# To characterise the response of the 3 above pollen beetle populations against α-cypermethrin full dose response bioassays were carried out. The bioassay method used was based on the method recommended by the Insecticide Resistance Action Committee (IRAC method no 11). Briefly, glass vials (5.7 cm height and 2.3 cm diameter) were coated with 0.5 ml of a serial dilutions of insecticide, dissolved in acetone, (α-cypermethrin) and rolled upon a blood-roller (Luckham Multimix Major, Denley Instruments Ltd) at room temperature until the solutions had completely evaporated. Five to 20 non-sexed adult pollen beetles were placed into a vial for each replicate and the top loosely closed with a screw-cap. Three replicates were used at each insecticide concentration, 7 concentrations in all. Vials treated with acetone only were used as controls.
# as §2
# [3] = biological target: T1, purified resistance-associated esterase (E4) (Myzus persicae, UniProt P35501); test: Esterase interference assay (indirect determination of esterase inhibition); assay type: biochemical; settings: for Reduction of esterase protection, comparison in words: E4 esterase interference assay, Examples 13 and 16; for Esterase protection (%) after pre-incubation with compound: no esterase = 0%, uninhibited E4 = 100%
# T1 construct: 5 g of aphids (stored at −20° C.) were homogenised in 0.02 M phosphate buffer pH 7.0; from tissue; host or cells: whole Myzus persicae aphids, clone 794JZ; homogenate purified over G-25 and DEAE Sepharose Fast Flow
# T1 sequence (P35501 24-552): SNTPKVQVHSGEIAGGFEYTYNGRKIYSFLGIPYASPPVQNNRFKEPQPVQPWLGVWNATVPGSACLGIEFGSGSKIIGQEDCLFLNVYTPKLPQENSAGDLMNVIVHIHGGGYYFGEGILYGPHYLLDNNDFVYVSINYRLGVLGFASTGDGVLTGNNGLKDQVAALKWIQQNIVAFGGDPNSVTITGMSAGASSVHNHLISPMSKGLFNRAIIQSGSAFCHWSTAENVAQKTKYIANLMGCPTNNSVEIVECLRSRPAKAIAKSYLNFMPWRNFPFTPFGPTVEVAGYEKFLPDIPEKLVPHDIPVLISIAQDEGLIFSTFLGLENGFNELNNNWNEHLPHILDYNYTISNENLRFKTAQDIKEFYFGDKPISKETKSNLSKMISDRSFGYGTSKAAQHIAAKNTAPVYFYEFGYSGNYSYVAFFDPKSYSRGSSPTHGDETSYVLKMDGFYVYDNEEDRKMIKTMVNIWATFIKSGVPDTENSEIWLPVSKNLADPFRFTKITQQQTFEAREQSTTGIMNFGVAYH
# Source text: Measuring the in vitro inhibition is not straight forward, as synergists may bind to a site other than the active site.
# The esterase used was the well-characterised resistance associated esterase purified from M. persicae, E4, (aphid clone: 794JZ) as per Devonshire (1977) with some modifications(Devonshire A L, The properties of a carboxylesterase from the peach-potato aphid, Myzus persicae (Sulz.) and its role in conferring insecticide resistance. Biochem J 167: 675-683 (1977)). Briefly, 5 g of aphids (stored at −20° C.) were homogenised in 0.02 M phosphate buffer pH 7.0 and centrifuged at 20 000 g for 10 min. The supernatant was passed through a G-25 column using 0.02M Tris/HCl, pH 8.5 buffer. Unretarded fractions containing esterase activity were further chromatographed through DEAF Sepharose Fast Flow (Amersham Biosciences) and eluted with a linear 0-0.35 M NaCl gradient in 500 ml of Tris/HCl as above. Fractions containing carboxylesterase activity in the form of E4 were concentrated, desalted, and buffer exchanged to 0.02 M phosphate pH 7.0 for storage.
# Interactions of the purified resistance-associated esterase (E4) with Compound of Example 2, Compound of Example 3, Compound of Example 4, Compound of Example 9 and Compound of Example 11 were performed using the ‘esterase interference assay’, as described by Khot et al., with some modifications. Devonshire A L, The properties of a carboxylesterase from the peach-potato aphid, Myzus persicae (Sulz.) and its role in conferring insecticide resistance. Biochem J 167: 675-683 (1977)). Briefly, stock solutions of novel synergists (3 mM in acetone) were pre-incubated with pure E4, to give a final concentration of 0.03 mM, for 16 h at 4° C. Aliquots (15 μl ) of E4, E4+Compound of Example 2, E4+Compound of Example 3, E4+Compound of Example 4, E4+Compound of Example 9 and E4+Compound of Example 11 were incubated for 1 h with 60 μl of serial dilutions of azamethiphos in 0.02M phosphate buffer, pH 7, in separate wells of a NUNC microplate. Aliquots (25 p1) of house fly head homogenate (source of AChE) were added to each well and incubated for 15 minutes at room temperature. E4 in acetone and buffer only served as the positive and the negative controls respectively. AChE activity was measured at 405 nm using a Tmax kinetic microplate reader (Molecular Devices, Menlo Park, Calif.). Readings were taken automatically for 10 min at 10 s intervals. The rate (mOD min^−1) was calculated by the integrated software, Softmax Pro 4.6. All treatments were performed in triplicate.
# No added esterase is giving 0% esterase protection and uninhibited esterase (E4) is giving 100% protection.
# The materials and procedure as stated in Example 13, paragraphs 13.1, 13.1.2, 13.1.2.1 and 13.1.2.2. have been used and the following results have been obtained: […]
# [4] = system: Myzus persicae; test: Topical application bioassay on aphid clones: imidacloprid with or without synergist pre-treatment; settings: for RF, resistance factor (LC50 resistant / LC50 susceptible population): imidacloprid; for LC50 (lethal concentration of imidacloprid to kill 50% of the population): imidacloprid alone, topical, scored 72 h
# Procedure: Aphid clones were reared on Chinese cabbage (Brassica rapa L. var. Pekinensis c.v Wong Bok) (Brassicaceae) leaves held in small plastic box-cages maintained at 18±2° C. with a 16:8 h light:dark photoperiod (Blackman R L, Variation in the photoperiodic response within natural populations of Myzus persicae (Sulzer). Bull Ent Res 60: 533-546 (1971)).
# Clone 4106A is a laboratory insecticide-susceptible standard2 . […] Both aphid clones have been established from single parthenogenetic M. persicae females (Foster S P, Denholm I, Thompson R, Poppy G M, Powell W, Reduced response of insecticide-resistant aphids and attraction of parasitoids to alarm pheromone; a potential fitness trade-off. Bull Ent Res 95: 37-46 (2005)).
# 12.1.2 Topical Application Bioassay with 5191A Aphid Clone Young apterae were transferred to the abaxial surface of Chinese cabbage leaf discs (10 adults per leaf disc, at least 3 replicates per concentration) held on 1% agar in plastic containers (4 cm in diameter). The upper edge of each container was coated with Fluon (Whitford Plastics, UK) to prevent subsequent aphid escape from the leaf surface. After allowing 2 h for the aphids to settle, each was dosed with 0.25 μl of either 1 g L^−1 Compound of Example 3 dissolved in acetone or acetone only. After 4 h aphids were further treated with 0.25 μl imidacloprid in acetone (96% AR) using a
# Burkard microapplicator (Burkard, Rickmansworth, UK). Controls were treated with acetone only. Treated aphids were stored at 18±2° C. and 16 h light: 8 h dark photoperiod. All bioassays were scored at the endpoint of 72 h after treatment. Adults incapable of co-ordinated movement (after gentle touching with a paint brush if necessary) were scored as dead. All bioassays were completed in triplicate.
# [5] = second 'TABLE 3' (Example 16), procedure as Example 13
# [6] = Table 2 (Example 13), 0.03 mM compound pre-incubated with E4 16 h at 4° C.
structure (smiles),measurement,setting,value
CC1(C)C(C=C(Cl)Cl)C1C(=O)OC(C#N)c1cccc(Oc2ccccc2)c1 (stereo not drawn) [α-cypermethrin],mortality at 0.3 ppm,"[1]; 24 h, Lebork",4.9%
same,mortality at 0.3 ppm,"[1]; 24 h, Rogalin",2.78%
same,mortality at 0.03 ppm,"[1]; 24 h, UK population, 0.03 ppm α-cypermethrin alone",13.6%
same,mortality at 0.3 ppm,[1]; Rogalin and Lebork,~5%
same,LC50 (lethal concentration of α-cypermethrin to kill 50% of the population),"[2]; Lebork population (pyrethroid resistant, Poland)",95.0 ηg/cm^2
same,"RF, resistance factor (LC50 resistant / LC50 susceptible population)",[2]; Lebork versus UK population,44
same,LC50 (lethal concentration of α-cypermethrin to kill 50% of the population),"[2]; Rogalin population (pyrethroid resistant, Poland)",65.0 ηg/cm^2
same,"RF, resistance factor (LC50 resistant / LC50 susceptible population)",[2]; Rogalin versus UK population,23 and 23.21
same,LC50 (lethal concentration of α-cypermethrin to kill 50% of the population),[2]; UK population (putative susceptible),2.80 ηg/cm^2
same,"RF, resistance factor (LC50 resistant / LC50 susceptible population)",[2]; UK population (reference),1
"CC#CCOc1cc(OC)c(OC)cc1CCC [Example 8, 1-(but-2-ynyloxy)-6-propyl-3,4-dimethoxybenzene]","Reduction of esterase protection, comparison in words",[3],"better activity than compounds 4, 7, respectively"
same,Esterase protection (%) after pre-incubation with compound,[3]; [5],5.09%
"C#CCOc1cc(OC)c(OC)cc1CCC [Example 7, 1-(propargyloxy)-6-propyl-3,4-dimethoxybenzene]",Esterase protection (%) after pre-incubation with compound,[3]; [5],15.17%
"C#CCOc1cc2c(cc1CCC)OCO2 [Example 4, 5-(propargyloxy)-6-propyl-benzo[1.3]dioxole]","Reduction of esterase protection, comparison in words",[3],worse activity than the compound of Example 3
same,Esterase protection (%) after pre-incubation with compound,[3]; [6],2.06%
same,Esterase protection (%) after pre-incubation with compound,[3]; [5],2.06%
"CC#CCOc1cc2c(cc1CCC)CCO2 [Example 11, 6-(but-2-ynyloxy)-5-propyl-2,3-dihydrobenzofuran]",Esterase protection (%) after pre-incubation with compound,[3]; [6],−1.17%
"C#CCOc1ccc2c(c1)OCO2 [Example 1, 5-(propargyloxy)-benzo[1,3]dioxole, reference compound]",Esterase protection (%) after pre-incubation with compound,[3]; [6],63.9%
same,Esterase protection (%) after pre-incubation with compound,[3]; [5],63.90%
"CC#CCOc1cc2c(cc1COCCOCCOCCCC)OCO2 [Example 9, 5-[2-(2-butoxyethoxy)-ethoxy]methyl-6-(but-2-ynyloxy)-benzo[1.3]dioxole]",Esterase protection (%) after pre-incubation with compound,[3]; [6],2.96%
O=[N+]([O-])NC1=NCCN1Cc1ccc(Cl)nc1 [imidacloprid],"RF, resistance factor (LC50 resistant / LC50 susceptible population)",[4]; aphid clone 4106A (susceptible reference),1
same,LC50 (lethal concentration of imidacloprid to kill 50% of the population),"[4]; aphid clone 4106A (susceptible, S)",1.6 ppm
same,"RF, resistance factor (LC50 resistant / LC50 susceptible population)",[4]; aphid clone 5191A versus 4106A,56.5
same,LC50 (lethal concentration of imidacloprid to kill 50% of the population),"[4]; aphid clone 5191A, FE4(R3) resistant",90.5 ppm

# — patent US8809389B2, “Substituted alkynyl phenoxy compounds as new synergists in pesticidal compositions” (Endura S.p.A., priority 2009, dated 2014)
